Values quoted from earlier work, collected in patent publication US8759032B2, “Genetically engineered strain WSJ-IA for producing isovaleryl spiramycin I” (Shen Yang Tonglian Group Co., Ltd., priority 2010, dated 2014).

Details: single components; no significant differences in their activities; patent application 201010119745.1

Question: For Isovaleryl spiramycin II, which antibiotic activities is on record?
Answer: all have antibiotic activities

Question: With `CO[C@@H]1[C@@H](O[C@@H]2O[C@H](C)[C@@H](O[C@H]3C[C@@](C)(O)[C@@H](OC(=O)CC(C)C)[C@H](C)O3)[C@H](N(C)C)[C@H]2O)[C@@H](CC=O)C[C@@H](C)[C@@H](O[C@H]2CC[C@H](N(C)C)[C@@H](C)O2)/C=C/C=C/C[C@@H](C)OC(=O)C[C@H]1O` [Isovaleryl spiramycin I] as the molecule, how does the antibiotic activities read?
Answer: all have antibiotic activities

Question: With `CCC(=O)O[C@@H]1CC(=O)O[C@H](C)C/C=C/C=C/[C@H](O[C@H]2CC[C@H](N(C)C)[C@@H](C)O2)[C@H](C)C[C@H](CC=O)[C@H](O[C@@H]2O[C@H](C)[C@@H](O[C@H]3C[C@@](C)(O)[C@@H](OC(=O)CC(C)C)[C@H](C)O3)[C@H](N(C)C)[C@H]2O)[C@H]1OC` [Isovaleryl spiramycin III] as the molecule, how does the antibiotic activities read?
Answer: all have antibiotic activities
